# Assay results as given in PMC10957775, “Integrated chemical characterization, metabolite profiling, and pharmacokinetics analysis of Zhijun Tangshen Decoction by UPLC-Q/TOF-MS” (Frontiers in Pharmacology, 2024).
# Read-outs that look alike come from different tables or passages of the source.
# How the values were obtained:
# [1] = in vivo; settings: male, Sprague-Dawley, rat, po; for half-life: t1/2
# Protocol: (§1) Thirty male Sprague–Dawley rats (200 ± 20 g) were purchased from the Nanjing Qinglongshan Experimental Animal Center (Nanjing, China). […] All rats were divided randomly into two groups: ZJTSD-dosed group (n = 27) and control group (n = 3). The ZJTSD-dosed group was given the ZJTSD solution by gavage (i.g.) at a dosage of 1 mL/100 g body weight of rats, and the control group was given 0.9% normal saline at the same dose, twice a day for a week. After the last administration, the blood was collected from the hepatic portal vein at 15 min, 30 min, 1 h, 2 h, 4 h, 6 h, 8 h, 12 h, and 24 h, and 3 rats were taken at each time point.
# (§2) The blood samples of rats were centrifuged at 4,000 rpm for 10 min to obtain the serum. The serum sample (1 mL) was processed with a 3-fold volume using methanol for protein precipitation, with epicoprostanol serving as the internal standard (digoxin and clarithromycin). After vortexing for 3 min, the mixture was centrifuged at 18,000 rpm for 10 min. Subsequently, the supernatant was evaporated at 45°C using a vacuum concentrator. After evaporating the solvent, 150 μL of methanol/water (1:1, v/v) was added, vortexed, sonicated, and then centrifuged at 18,000 rpm for 10 min at 4°C. The resulting supernatant was used for further analysis.
# (§3) Liquid chromatographic separation was performed using an AB SCIEX LC™ 2.0 system (AB SCIEX, United States) fitted with an Acquity UPLC BEH C18 column (100 mm × 2.1 mm, 1.7 μm; Ireland). The mobile phases in negative and positive ion modes consisted of 0.1% FA aqueous solution (A) and acetonitrile containing 0.1% FA (B). The program of the elution gradient was set as follows: 0∼5 min, 2%∼35 %B; 5∼7 min, 35%∼50%; 7∼10 min, 50%∼70%; 10∼15 min, 70%∼90 %B; 15∼18 min, 90%∼90 %B; 18∼18.5 min, 90%∼2 %B; and 18.5∼20 min, 2%∼2 %B. The injection volume was 3 µL. The flow rate and the column temperature were set at 0.3 mL/min and 40°C, respectively.
# (§4) The mass spectrometry analysis was performed on a SCIEX ZenoTOF™ 7600 system (AB SCIEX, United States), which was calibrated in the high-sensitivity mode for every 10 samples. Spectra were acquired in the TOF/MS-IDA-TOF MS/MS mode with the ESI source operating in positive and negative ion modes. MS parameters were set as follows: ionization source, ESI; spray voltage, 5,500 kV/–4,500 kV; collision energy, 40 V/–40 V; declustering potential, 80 V/–80 V; ion source temperature, 550°C; and scan range, 100–1250 m/z. Data acquisition and processing were performed using SCIEX OS 2.2 and PeakView 2.2.
# (§5) A semi-quantitative method was adopted based on the correction peak area versus time ([Wang et al., 2011]; [Lin et al., 2019]). The mean serum time-course profile of pharmacokinetics based on the peak area ratio versus time was plotted using Origin 2018. The kinetic analysis of the peak area ratio (×1,000)–time curve was calculated using Phoenix WinNonlin 8.1 (Phoenix, American) software and illustrated.
# [2] = tested on: DN; parameters: method as in Guo et al., 2017; settings: in vitro and in vivo; ref Guo et al., 2017; cited from earlier work
# [3] = parameters: AUC(0→t) / Cmax: unit not given beside the values; settings: rat, in vivo
# [4] = tested on: DN mice; parameters: method as in Tian et al., 2018; settings: ref Tian et al., 2018; cited from earlier work
# [5] = Multi-compound pharmacokinetics of ZJTSD in rat serum, semi-quantitative UPLC-Q/TOF-MS (peak area ratio versus time, non-compartmental); settings: male, Sprague-Dawley, rat, serum (hepatic portal vein blood), po, 1 mL/100 g body weight
# Protocol: as §1, §2, §3, §4, §5
AUC(0→t) [3],Cmax [3],AUC (in words) ([3]; po),Tmax ([3]; po) [h],elimination half-life (t1/2) ([3]; po),pharmacokinetic behavior compared with other prototype compounds and metabolites (in words) ([3]; po),Structure (SMILES),other results
119599.26±21102.35,26478.39±12536.14,,,,,"Cc1cc(O)c2c(c1)C(=O)c1cccc(O)c1C2=O [P13, Chrysophanol]",MRT last [1]: 4.89 ± 0.61 h; Tmax [1]: 1.67 ± 2.02 h; half-life [1]: 2.42 ± 1.63 h; effect on progression of DN [2]: significantly slowed the progression of DN; level of exposure in the blood (in words) ([3]; po): higher level of exposure
,,greater,≤ 3.5,less than 4 h,better pharmacokinetic behavior,Cc1ccc2c(c1)C(=O)c1cc(OS(=O)(=O)O)ccc1C2=O [M26],
3.73±0.45,0.77±0.18,,,,,"COc1ccc2c(c1OC)O[C@H]1c3ccc(O)cc3OC[C@@H]21 [P8, Methylnissolin]",MRT(0→t) [3]: 6.10±1.53; Tmax [3]: 0.42±0.14; t1/2 [3]: 4.16±2.01
,,,,,,O=C1C[C@@H](c2ccc(O[C@@H]3O[C@H](CO)[C@@H](O)[C@H](O)[C@H]3O)cc2)Oc2cc(O)ccc21 [liquiritin],detection in serum / absorbed form ([3]; po): not detected in the serum
,,greater,≤ 3.5,less than 4 h,better pharmacokinetic behavior,O=C(O)c1cc2c(cc1O)C(=O)c1ccccc1C2=O [M28],
,,greater,≤ 3.5,less than 4 h,better pharmacokinetic behavior,CC(=O)CCc1ccc(OS(=O)(=O)O)cc1 [M85],
,,,,,,O=C1C[C@@H](c2ccc(O)cc2)Oc2cc(O)ccc21 [M18],detection in serum / absorbed form ([3]; po): detected in vivo
,,,≤ 3.5,> 7.5 h,better pharmacokinetic behavior,C[N+](C)(C)CCOP(=O)([O-])OCC(O)COCCCCCCCCCCCCCCC=O (stereo not drawn) [M99],
,,,,,,"Cc1cc(O)c2c(c1)C(=O)c1cc(O)cc(O)c1C2=O [P16, Emodin]","effect on urinary albumin, serum creatinine and blood urea nitrogen [4]: improved urinary albumin, serum creatinine, and blood urea nitrogen levels; detection in serum / absorbed form ([3]; po): absorbed as prototype compounds; MRT last [5]: 5.84 ± 0.37 h; Tmax [5]: 2.83 ± 2.02 h; half-life ([5]; t1/2, prototype compounds of ZJTSD absorbed into rat serum, mean±SD, n=3): 8.19 ± 9.39 h"
406691.82±79143.95,79253.50±34585.36,,,,,"Cc1cc(O)c2c(c1)C(=O)c1cc(C(=O)O)cc(O)c1C2=O [P19, 6-Methyl-rhein]",MRT(0→t) [3]: 5.64±1.31; t1/2 [3]: 1.98±0.38

Structure (SMILES),AUC(0→t) [3],Cmax [3],AUC (in words) ([3]; po),Tmax ([3]; po) [h],elimination half-life (t1/2) ([3]; po),pharmacokinetic behavior compared with other prototype compounds and metabolites (in words) ([3]; po),other results
"CCCCOC(=O)c1ccccc1C(=O)OCCCC [P49, Dibutyl phthalate]",542.84±7.58,26.50±1.13,,,,,MRT last [1]: 12.1 ± 0.17 h; Tmax [1]: 8.08 ± 6.78 h
"CCCCCCCCCCCCCCCC(=O)OC[C@@H](O)COP(=O)([O-])OCC[N+](C)(C)C [P50, 1-O-Hexadecanoyl-sn-glycero-3-phosphocholine]",149276.86±8351.53,11488.73±739.96,,,,,MRT last [1]: 10.2 ± 0.58 h; Tmax [1]: 1 ± 0.87 h; half-life [1]: 21.9 ± 12.8 h
O=C1c2ccccc2C(=O)c2ccccc21 [M52],,,greater,> 4,,better pharmacokinetic behavior,Cmax / peak concentration (in words) ([3]; po): higher peak concentrations
